According to ChEMBL document CHEMBL1201862, “PubChem BioAssay data set” (2004):
Where a name gives a salt, the structure may show the parent alone. Activity calls are given as the source filed them.

How the values were obtained:
cells [1] = type: functional, cell-based
[2] = biological target: T1, Heat shock factor protein 1 (Mus musculus, UniProt P38532); test: decrease of HSF1-responsive luciferase luminescence – cell-based, NIH3T3, dose retest, confirmation (AID 2382); type: functional;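 note: NIH3T3 fibroblasts with HSF1-driven luciferase reporter stressed by proteasome inhibitor MG132; luminescence from HSF1-driven luciferase expression after 8 hours of MG132 stress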
T1 sequence (P38532 whole entry): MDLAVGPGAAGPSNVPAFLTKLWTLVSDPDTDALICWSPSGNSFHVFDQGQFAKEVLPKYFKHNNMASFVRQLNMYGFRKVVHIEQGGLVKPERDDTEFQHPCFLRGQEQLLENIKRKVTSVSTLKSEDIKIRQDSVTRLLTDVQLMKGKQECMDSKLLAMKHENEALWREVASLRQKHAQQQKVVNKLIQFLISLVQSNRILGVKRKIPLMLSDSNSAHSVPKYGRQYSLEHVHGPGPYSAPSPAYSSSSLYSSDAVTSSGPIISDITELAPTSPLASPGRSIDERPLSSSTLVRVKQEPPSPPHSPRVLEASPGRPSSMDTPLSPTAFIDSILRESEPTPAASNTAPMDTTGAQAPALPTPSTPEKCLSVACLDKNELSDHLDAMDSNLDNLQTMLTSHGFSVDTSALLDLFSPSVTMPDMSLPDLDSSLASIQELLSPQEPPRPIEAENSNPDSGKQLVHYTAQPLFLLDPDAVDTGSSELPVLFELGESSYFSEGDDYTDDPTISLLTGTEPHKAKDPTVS

cells [3] = type: functional, cell-based; remark: listed apart in the source
[4] = biological target: T2, Trace amine-associated receptor 1 (Homo sapiens, UniProt Q96RJ0); test: Fluorescence-based cell-based high throughput dose response assay to identify agonists of the human trace amine associated receptor 1 (TAAR1).; type: functional
T2 sequence (Q96RJ0 whole entry): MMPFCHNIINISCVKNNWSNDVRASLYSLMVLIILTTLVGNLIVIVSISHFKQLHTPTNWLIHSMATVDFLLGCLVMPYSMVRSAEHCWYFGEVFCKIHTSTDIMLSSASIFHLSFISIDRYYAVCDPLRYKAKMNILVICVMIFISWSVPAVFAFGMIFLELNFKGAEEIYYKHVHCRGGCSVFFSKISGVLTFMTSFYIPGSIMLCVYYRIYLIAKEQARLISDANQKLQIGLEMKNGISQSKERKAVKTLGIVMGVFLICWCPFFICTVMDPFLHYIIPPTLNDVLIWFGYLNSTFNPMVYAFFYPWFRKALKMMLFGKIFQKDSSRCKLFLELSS

[5] = biological target: T2, Trace amine-associated receptor 1; test: Counterscreen for agonists of the human trace amine associated receptor 1 (hTAAR1): Fluorescence-based cell-based high throughput dose response assay to identify hTAAR1 agonist that also desensitize TAAR1 receptor response.; type: functional
Protein skinhead-1 = biological target: T3, Protein skinhead-1 (Caenorhabditis elegans, UniProt P34707); type: functional
T3 sequence (P34707 whole entry): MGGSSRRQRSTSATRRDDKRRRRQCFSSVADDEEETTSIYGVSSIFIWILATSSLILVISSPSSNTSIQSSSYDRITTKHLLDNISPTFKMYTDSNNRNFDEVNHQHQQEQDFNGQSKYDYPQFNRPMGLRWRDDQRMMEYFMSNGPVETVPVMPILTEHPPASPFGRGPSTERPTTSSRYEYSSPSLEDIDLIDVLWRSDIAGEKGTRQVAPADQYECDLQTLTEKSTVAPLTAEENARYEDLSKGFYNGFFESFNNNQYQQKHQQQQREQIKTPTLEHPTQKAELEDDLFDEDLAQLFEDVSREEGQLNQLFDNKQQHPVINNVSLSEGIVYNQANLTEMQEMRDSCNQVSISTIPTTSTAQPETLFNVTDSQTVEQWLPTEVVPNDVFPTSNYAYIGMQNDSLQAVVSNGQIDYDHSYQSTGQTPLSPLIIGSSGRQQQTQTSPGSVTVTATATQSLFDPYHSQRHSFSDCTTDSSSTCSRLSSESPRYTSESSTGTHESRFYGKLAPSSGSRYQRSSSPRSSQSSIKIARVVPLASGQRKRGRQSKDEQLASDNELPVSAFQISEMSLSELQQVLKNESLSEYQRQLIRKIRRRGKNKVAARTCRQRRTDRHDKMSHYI

Cytochrome P450 3A4 = Cytochrome P450 3A4 (Homo sapiens, UniProt P08684);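 note: CYP3A4 tested as one member of a cytochrome P450 panel screen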
[6] = biological target: T4, Tyrosine-protein phosphatase non-receptor type 5 (Homo sapiens, UniProt P54829); test: PTPN5 enzyme inhibition – biochemical, fluorescence intensity, uHTS hits, confirmation (AID 602372); type: functional; conditions: read-out: IC50_Mean
T4 sequence (P54829 whole entry): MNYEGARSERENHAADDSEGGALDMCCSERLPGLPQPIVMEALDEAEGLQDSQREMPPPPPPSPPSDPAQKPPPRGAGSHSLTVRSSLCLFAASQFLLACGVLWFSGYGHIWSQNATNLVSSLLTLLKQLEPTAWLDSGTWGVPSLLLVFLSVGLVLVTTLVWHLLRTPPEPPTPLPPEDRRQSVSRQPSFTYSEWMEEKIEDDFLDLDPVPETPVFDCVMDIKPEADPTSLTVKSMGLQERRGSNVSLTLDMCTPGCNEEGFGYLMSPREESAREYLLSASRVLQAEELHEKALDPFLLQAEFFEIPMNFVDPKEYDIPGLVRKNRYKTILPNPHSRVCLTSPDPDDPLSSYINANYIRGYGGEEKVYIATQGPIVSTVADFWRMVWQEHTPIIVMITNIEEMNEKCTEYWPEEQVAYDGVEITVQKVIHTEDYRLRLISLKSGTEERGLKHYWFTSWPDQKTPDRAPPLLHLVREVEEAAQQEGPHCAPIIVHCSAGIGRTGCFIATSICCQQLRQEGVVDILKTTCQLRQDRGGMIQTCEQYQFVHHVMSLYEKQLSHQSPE

[7] = biological target: Dual specificity protein phosphatase 3 (Homo sapiens, UniProt P51452); test: VHR phosphatase inhibition, dose response, selectivity assay for STEP inhibitor project, biochemical (AID 602374); type: functional; conditions: read-out: IC50_Mean
[8] = biological target: T5, Tyrosine-protein phosphatase non-receptor type 11 (Homo sapiens, UniProt Q06124); test: PTPN11 enzyme inhibitors – biochemical, selectivity assay for STEP inhibitor project, dose response (AID 602367); type: functional; conditions: read-out: IC50_Mean
T5 sequence (Q06124 whole entry): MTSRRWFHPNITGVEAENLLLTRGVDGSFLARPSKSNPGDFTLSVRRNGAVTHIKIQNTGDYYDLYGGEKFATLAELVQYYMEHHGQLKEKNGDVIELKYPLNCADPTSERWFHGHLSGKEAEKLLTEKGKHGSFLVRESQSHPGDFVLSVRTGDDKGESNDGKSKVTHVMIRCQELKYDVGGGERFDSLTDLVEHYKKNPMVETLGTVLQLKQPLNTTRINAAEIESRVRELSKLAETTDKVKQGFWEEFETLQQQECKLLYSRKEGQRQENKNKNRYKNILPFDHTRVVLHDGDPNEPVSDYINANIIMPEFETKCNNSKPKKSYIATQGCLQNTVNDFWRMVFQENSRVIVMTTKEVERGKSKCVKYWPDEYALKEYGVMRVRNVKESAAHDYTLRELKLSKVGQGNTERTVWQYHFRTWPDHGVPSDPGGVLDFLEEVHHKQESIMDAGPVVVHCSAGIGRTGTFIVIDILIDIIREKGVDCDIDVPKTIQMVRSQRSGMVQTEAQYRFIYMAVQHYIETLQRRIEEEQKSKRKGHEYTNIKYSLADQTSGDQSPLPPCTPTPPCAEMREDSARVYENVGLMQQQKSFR

[9] = biological target: T6, Sentrin-specific protease 8 (Homo sapiens, UniProt Q96LD8); type: functional
T6 sequence (Q96LD8 whole entry): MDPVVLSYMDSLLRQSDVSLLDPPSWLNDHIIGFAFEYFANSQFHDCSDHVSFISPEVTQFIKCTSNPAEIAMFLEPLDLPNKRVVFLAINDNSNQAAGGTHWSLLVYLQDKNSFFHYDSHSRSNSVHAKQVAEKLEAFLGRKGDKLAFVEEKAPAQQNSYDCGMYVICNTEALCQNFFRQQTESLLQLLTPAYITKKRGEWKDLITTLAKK

[10] = biological target: T6, Sentrin-specific protease 8; type: functional; remark: listed apart in the source
Cytochrome P450 2C9 = Cytochrome P450 2C9 (Homo sapiens, UniProt P11712)
[11] = viability loss in CEM21 cells – cell-based, CellTiter-Glo luminescence, cherry-picked, cytotoxicity control for viral fusion inhibitor project, dose response (AID 652042); type: functional;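 note: potency for signal decrease meaning cytotoxicity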
Fatty acid synthase [12] = biological target: T7, Fatty acid synthase (Homo sapiens, UniProt P49327); test: inhibition of human FAS-TE enzyme activity – biochemical, kinetic fluorescence intensity, dose response (AID 624326); type: functional;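 note: rate of fluorescence rise from hydrolysis of a fluorogenic O-methyl fluorescein ester substrate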
Fatty acid synthase [13] = biological target: T7, Fatty acid synthase; test: inhibition of human FAS-TE enzyme activity – biochemical, endpoint fluorescence intensity, uHTS hits, dose response (AID 624327); type: functional;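 note: fluorescence from hydrolysis of an O-methyl fluorescein acyl ester substrate by the enzyme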
cells [14] = test: cells
[15] = viability of uninfected HEp-2 cells – cell-based, HTS, cytotoxicity control for RSV inhibitor project, dose response (AID 2410); type: functional; conditions: human respiratory syncytial virus
[16] = biological target: T8, Small ubiquitin-related modifier 1 (Homo sapiens, UniProt P63165); test: SUMO1 protein interaction blockers, potency – biochemical, fluorescence polarization, uHTS hits, dose response (AID 624382); type: functional; conditions: read-out: IC50_Mean
[17] = biological target: T8, Small ubiquitin-related modifier 1; test: SUMO1 protein-protein binding blockers, potency – biochemical, FRET, dose response (AID 624383); type: functional; conditions: read-out: IC50_Mean
Escherichia coli [18] = test: microbe, parasite or virus in culture
Escherichia coli [19] = test: microbe, parasite or virus in culture; remark: listed apart in the source
[20] = activation of miR-122 Renilla sensor silencing – cell-based, Huh7 psiCHECK-miR122, Renilla luciferase, cherry-picked, dose response (AID 651956); type: functional;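 note: huh7 hepatoma cells stably carrying a psiCHECK-2 miR-122 sensor plasmid; renilla luciferase signal reporting endogenous miR-122 activity after 48 h compound exposure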
[21] = blockers of HIV-1 envelope-mediated cell-cell fusion – cherry-pick, dose response (AID 652057); type: functional, cell-based
[22] = HIV-1 AD8 envelope cell-cell fusion blockers – cherry-pick, dose response (AID 652062); type: functional, cell-based;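 note: luciferase signal from cell-cell fusion driven by HIV-1 clade B AD8 Env; potency is for inhibitors of fusion seen as a drop in luminescence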
[23] = blockers of HIV-1 ZM109 envelope-driven cell-cell fusion – HeLa effector, CEM target cells, luciferase, cherry-pick, dose response (AID 652058); type: functional, cell-based;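 note: luciferase signal from HIV-1 Env mediated cell-cell fusion of effector and target cells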
[24] = off-target signal loss in HeLa-CEM21 co-culture – HeLa F-luc CTL cells, cherry-picked, counter-screen for HIV-1 Env fusion inhibitor project, dose response (AID 652040); type: functional, cell-based;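 note: potency for signal decrease marking cytotoxic or nonspecific inhibition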

T8 sequence (P63165 whole entry): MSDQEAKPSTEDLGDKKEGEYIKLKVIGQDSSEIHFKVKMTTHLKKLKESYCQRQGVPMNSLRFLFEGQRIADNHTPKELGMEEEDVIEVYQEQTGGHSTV
T7 sequence (P49327 whole entry): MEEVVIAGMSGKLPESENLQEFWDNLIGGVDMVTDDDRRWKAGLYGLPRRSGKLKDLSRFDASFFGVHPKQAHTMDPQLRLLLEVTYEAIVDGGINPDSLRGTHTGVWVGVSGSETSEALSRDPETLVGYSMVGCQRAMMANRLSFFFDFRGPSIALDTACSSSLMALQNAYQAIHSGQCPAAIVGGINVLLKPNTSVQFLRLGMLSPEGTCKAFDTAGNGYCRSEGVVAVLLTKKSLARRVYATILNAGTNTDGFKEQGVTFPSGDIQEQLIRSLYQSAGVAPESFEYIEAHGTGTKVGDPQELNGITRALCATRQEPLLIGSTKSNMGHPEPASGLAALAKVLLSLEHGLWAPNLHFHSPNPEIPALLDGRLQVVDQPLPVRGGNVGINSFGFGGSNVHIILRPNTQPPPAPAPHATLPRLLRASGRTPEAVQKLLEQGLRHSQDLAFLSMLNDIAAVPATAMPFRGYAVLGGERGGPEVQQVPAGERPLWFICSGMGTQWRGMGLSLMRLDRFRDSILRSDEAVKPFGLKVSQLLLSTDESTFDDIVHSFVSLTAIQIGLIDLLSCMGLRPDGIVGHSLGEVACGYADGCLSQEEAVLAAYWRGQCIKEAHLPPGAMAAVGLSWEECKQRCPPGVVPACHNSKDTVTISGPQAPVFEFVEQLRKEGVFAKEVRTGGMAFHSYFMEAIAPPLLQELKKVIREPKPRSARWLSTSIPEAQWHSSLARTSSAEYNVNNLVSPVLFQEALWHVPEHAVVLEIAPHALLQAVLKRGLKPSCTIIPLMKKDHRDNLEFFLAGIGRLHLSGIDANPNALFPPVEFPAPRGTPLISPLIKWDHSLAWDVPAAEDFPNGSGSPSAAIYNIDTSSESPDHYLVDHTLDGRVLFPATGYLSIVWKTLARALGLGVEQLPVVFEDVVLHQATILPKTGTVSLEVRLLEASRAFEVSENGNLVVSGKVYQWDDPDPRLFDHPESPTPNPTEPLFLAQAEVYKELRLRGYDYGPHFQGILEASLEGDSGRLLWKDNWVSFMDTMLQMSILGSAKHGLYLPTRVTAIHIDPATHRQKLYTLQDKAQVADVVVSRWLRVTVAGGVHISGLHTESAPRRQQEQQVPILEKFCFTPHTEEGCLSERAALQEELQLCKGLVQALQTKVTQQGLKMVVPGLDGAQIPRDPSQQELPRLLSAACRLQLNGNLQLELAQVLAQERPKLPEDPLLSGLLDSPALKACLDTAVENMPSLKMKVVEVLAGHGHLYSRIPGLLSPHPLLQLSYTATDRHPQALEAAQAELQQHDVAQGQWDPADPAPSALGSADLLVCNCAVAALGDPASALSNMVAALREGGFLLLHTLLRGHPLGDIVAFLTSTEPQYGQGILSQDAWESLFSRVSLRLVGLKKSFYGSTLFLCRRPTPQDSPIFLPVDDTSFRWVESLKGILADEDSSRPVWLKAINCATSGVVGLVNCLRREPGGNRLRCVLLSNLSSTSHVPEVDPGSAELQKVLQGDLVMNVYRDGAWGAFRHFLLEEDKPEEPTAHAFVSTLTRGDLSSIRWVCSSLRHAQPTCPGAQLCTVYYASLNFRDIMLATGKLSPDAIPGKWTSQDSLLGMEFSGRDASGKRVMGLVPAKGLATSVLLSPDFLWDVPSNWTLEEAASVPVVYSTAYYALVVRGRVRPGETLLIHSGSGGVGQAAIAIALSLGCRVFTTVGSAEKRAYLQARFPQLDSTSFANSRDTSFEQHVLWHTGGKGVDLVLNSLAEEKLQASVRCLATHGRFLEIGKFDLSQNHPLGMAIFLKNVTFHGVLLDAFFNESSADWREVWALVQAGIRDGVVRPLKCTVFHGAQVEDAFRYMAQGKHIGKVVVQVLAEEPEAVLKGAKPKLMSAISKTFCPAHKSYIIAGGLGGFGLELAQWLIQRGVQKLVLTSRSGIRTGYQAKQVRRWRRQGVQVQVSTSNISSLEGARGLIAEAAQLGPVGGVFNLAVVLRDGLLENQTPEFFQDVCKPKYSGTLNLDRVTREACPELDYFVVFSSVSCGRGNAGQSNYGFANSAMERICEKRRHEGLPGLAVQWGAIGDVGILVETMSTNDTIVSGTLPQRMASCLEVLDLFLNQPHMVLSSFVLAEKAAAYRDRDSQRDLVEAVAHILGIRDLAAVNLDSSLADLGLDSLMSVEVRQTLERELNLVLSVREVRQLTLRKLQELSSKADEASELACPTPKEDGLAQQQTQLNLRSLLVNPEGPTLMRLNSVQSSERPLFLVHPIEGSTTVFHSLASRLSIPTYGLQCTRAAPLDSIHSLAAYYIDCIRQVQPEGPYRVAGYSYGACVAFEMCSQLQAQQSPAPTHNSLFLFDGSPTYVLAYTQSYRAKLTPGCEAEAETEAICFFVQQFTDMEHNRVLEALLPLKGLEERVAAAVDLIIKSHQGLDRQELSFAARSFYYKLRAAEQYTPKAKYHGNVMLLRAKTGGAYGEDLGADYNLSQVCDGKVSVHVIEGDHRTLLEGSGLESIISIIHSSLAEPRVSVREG
Chain of Dual specificity protein phosphatase 3 (P51452 whole entry): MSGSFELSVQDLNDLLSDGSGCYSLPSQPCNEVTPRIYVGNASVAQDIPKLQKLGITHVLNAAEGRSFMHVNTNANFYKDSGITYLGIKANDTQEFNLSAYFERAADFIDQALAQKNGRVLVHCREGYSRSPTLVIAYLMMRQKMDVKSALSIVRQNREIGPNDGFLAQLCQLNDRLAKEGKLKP
Chain of Cytochrome P450 2C9 (P11712 whole entry, the tested form may be a part): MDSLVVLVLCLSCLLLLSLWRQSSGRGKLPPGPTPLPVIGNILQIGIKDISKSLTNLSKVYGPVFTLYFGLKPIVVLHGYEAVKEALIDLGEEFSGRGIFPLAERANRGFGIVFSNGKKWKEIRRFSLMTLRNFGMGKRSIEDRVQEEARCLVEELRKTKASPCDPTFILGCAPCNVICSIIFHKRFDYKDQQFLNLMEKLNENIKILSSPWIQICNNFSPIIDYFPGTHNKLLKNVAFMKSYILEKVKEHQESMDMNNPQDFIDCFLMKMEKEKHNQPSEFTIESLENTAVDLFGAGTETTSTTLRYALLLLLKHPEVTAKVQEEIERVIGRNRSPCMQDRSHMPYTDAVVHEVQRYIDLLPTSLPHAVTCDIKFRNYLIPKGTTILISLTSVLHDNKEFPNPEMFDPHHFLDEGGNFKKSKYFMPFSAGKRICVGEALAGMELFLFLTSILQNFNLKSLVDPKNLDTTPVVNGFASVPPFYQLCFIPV
Chain of Cytochrome P450 3A4 (P08684 whole entry): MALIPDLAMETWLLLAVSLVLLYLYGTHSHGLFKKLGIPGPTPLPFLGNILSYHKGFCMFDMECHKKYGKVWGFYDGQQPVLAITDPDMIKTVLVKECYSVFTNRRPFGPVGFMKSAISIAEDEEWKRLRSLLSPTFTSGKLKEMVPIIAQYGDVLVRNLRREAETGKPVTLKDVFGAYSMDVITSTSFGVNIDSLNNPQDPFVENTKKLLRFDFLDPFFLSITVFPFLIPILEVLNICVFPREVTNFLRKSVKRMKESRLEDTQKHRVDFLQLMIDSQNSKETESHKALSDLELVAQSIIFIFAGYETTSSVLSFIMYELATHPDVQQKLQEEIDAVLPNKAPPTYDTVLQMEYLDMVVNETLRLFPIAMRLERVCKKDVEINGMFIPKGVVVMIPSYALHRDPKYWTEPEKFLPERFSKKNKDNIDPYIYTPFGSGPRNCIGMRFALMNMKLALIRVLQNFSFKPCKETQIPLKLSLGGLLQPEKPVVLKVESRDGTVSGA

N=C(N)SCc1ccccc1Cl
EC50 (cells [1]): > 29.9 µM (inactive) | EC50 [2]: 121 µM (active) | IC50 (cells [3]): > 29.9 µM (inactive) | EC50 [4]: 1.42 µM (active) | IC50 [5]: 5.21 µM (active)

CSc1ccc(NC(=O)NCCCN2CCN(c3ccccc3F)CC2)cc1
IC50 (Protein skinhead-1): > 100 µM (inactive) | AC50 (Cytochrome P450 3A4): inconclusive

CCOc1ccc(C(=S)N2CCN(C)CC2)cc1
IC50 [6]: 24.6 µM (inactive) | IC50 [7]: 1.42 µM (active) | IC50 [8]: 3.9 µM (active)

O=C1Cc2ccccc2C(=O)N1OCc1ccc(Cl)cc1
IC50 [9]: 11 µM (active) | IC50 [10]: 11.8 µM (active)

C[C@@H]1C=C[C@](Cc2ccccc2)(C(=O)NCC2CC2)N1C(=O)c1ccccc1
IC50 (Protein skinhead-1): > 100 µM (inactive)

C=CCOc1c(Br)cc(CNc2ccc(NC(=O)C(C)C)c(OC)c2)cc1OC
AC50 (Cytochrome P450 2C9): 0.00562 µM (inconclusive) | AC50 [11]: 63.1 µM (active)

CC(=O)N1CCC(N(CCN2CCOCC2)C(=S)Nc2ccc(C)cc2)CC1
IC50 [6]: > 80 µM (inactive) | IC50 [7]: 3.44 µM (active) | IC50 [8]: 17.9 µM (active)

CC(NC(=O)Nc1cccc([N+](=O)[O-])c1)c1ccc2c(c1)OCO2 (centres undefined)
IC50 (Fatty acid synthase [12]): 1.64 µM (active) | IC50 (Fatty acid synthase [13]): 2.18 µM (active)

O=C(COc1cc([N+](=O)[O-])cc2cccnc12)NCCC1=CCCCC1
IC50 (Fatty acid synthase [12]): 0.778 µM (active) | IC50 (Fatty acid synthase [13]): 1.1 µM (active)

CCCCCn1c(CN2CCN(c3cccc(Cl)c3)CC2)nc2c1c(=O)n(C)c(=O)n2C
IC50 (Fatty acid synthase [12]): 4.64 µM (active) | IC50 (Fatty acid synthase [13]): 3.96 µM (active)

O=C(Nc1cc2nn(-c3ccccc3)nc2cc1Cl)c1ccco1
IC50 (Protein skinhead-1): > 100 µM (inactive)

Fc1ccccc1-c1nc(-c2ccncc2)no1
IC50 (Protein skinhead-1): 25.1 µM (active)

CCn1c2ccc(C)cc2c2nnc(NN)nc21
IC50 [9]: 8.84 µM (active) | IC50 (cells [14]): 17.4 µM (active) | CC50 [15]: 32.3 µM (active) | IC50 [10]: > 100 µM (inactive)

CC(=O)c1c(C)[nH]c(C(=O)OCC(=O)c2ccc3c(c2)NC(=O)CO3)c1C
IC50 [16]: > 66.6 µM (inactive) | IC50 [17]: 6.39 µM (active)

COCCCNC(=O)CC1C[C@H](C(=O)N2CCOCC2)[C@@]2(CCC3CCCC3)c3[nH]c4ccc(OC)cc4c3CCN2C1=O (some centres undefined)
IC50 (Fatty acid synthase [12]): 7.56 µM (active) | IC50 (Fatty acid synthase [13]): 11.5 µM (active)

Cc1n[nH]c(-c2cccnc2)c1N=NN(C)C
AC50 (Escherichia coli [18]): 2.15 µM (active) | AC50 (Escherichia coli [19]): 0.628 µM (active)

C/C=C/c1ccc([C@@H]2[C@@H](CO)N(C(C)=O)[C@@H]2CN(C)C(=O)c2ccccn2)cc1
AC50 [20]: 39.6 µM (active)

CN1C(=O)c2cc(NC(=O)Nc3cccc(Cl)c3)ccc2OC[C@H]2O[C@@H](CC(=O)NCCc3ccncc3)CC[C@H]21
AC50 [20]: 31.4 µM (active)

CCCCCNC(=O)C(c1ccncc1)n1c(=O)c(-c2cc3ccccc3[nH]2)nc2ccccc21 (centres undefined)
AC50 [21]: 2.62 µM (active) | AC50 [22]: 7.8 µM (active) | AC50 [11]: 31.9 µM (active) | AC50 [23]: 4.68 µM (active) | AC50 [24]: 4 µM (active)

COc1ccc(-c2cc(=O)c3c(C)cc(O)cc3o2)cc1
IC50 [16]: > 66.6 µM (inactive) | IC50 [17]: 8.68 µM (active)

c1ccc2c(CC3=NCCN3)cccc2c1 [NAPHAZOLINE HYDROCHLORIDE]
EC50 (cells [1]): > 29.9 µM (inactive) | IC50 (cells [3]): > 29.9 µM (inactive) | EC50 [4]: 0.14 µM (active) | IC50 [5]: 1.15 µM (active)
